Source: patent publication EP2975033A1, “Improved cysteine-protease inhibitors” (Universitat Jaume I, priority 2014, dated 2016)
Converted amounts (≈) assume the structure as drawn. Read-outs that look alike come from different tables or passages of the source.

Experiments:
Cathepsin L (human) = target: T1, Cathepsin L (human) (Homo sapiens, UniProt P07711); assay: Protease assay, fluorogenic substrate Z-Phe-Arg-AMC: Cathepsin L; assay type: biochemical
T1 construct: Cathepsin L (human liver) Calbiochem; purchased Calbiochem; host or cells: human liver (tissue-derived)
T1 sequence (P07711 114-333): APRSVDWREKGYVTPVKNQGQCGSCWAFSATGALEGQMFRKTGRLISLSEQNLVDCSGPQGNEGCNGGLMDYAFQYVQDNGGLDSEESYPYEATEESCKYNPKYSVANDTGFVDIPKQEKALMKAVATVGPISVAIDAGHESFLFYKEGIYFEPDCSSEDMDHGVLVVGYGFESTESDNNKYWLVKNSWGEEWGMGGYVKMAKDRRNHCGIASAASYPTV
Text: (§1) 2.1.1. Protease Assays as shown in tables 1 and 2: Cathepsin L (human), Cathepsin B (human), Rhodesain (Trypanosoma brucei rhodesiense), Falcipain 2 (Plasmodium falciparum)
(§2) Enzyme assays used to identify inhibitors of the target cysteine proteases. The effect is detected measuring fluorescence increase due to hydrolysis of fluorogenic substrates by the target enzymes in absence and presence of potential inhibitors.
(§3) • a. Proteins (enzymes): • Cathepsin L (human liver) Calbiochem • Cathepsin B (human liver) Calbiochem • Rhodesain: recombinantly expressed according to ref.: Caffrey, C. R.; Hansell, E.; Lucas, K. D.; Brinen, L. S.; Hernandez, A. A.; Cheng, J.; Gwaltney, S. L., II; Roush, W. R.; Stierhof, Y. D.; Bogyo, M.; Steverding, D.; McKerrow, J. H. Active site mapping, biochemical properties and subcellular localization of rhodesain, the major cysteine protease of Trypanosoma • Falcipain 2: recombinantly expressed according to ref.: Pandey, K. C.; Wang, S. X.; Sijwali, P. S.; Lau, A. L.; McKerrow, J. H.; Rosenthal, P. J. The Plasmodium falciparum cysteine protease falcipain-2 captures its substrate, hemoglobin, via a unique motif. Proc. Natl. Acad. Sci. U.S.A. 2005, 102, 9138-9143. • b. Buffers: • Cathepsin B: 50 mM Tris-Puffer pH 6.5 mit 2 mM DTT, 5 mM EDTA, 200 mM NaCl, 0.005% Brij35 • Cathepsin L: 50 mM Tris-Puffer pH 6.5 mit 2 mM DTT, 5 mM EDTA, 200 mM NaCl, 0.005% Brij35 • Rhodesain: 50 mM Acetat-Puffer pH 5.5 mit 5 mM DTT, 5 mM EDTA, 200 mM NaCl, 0.005% Brij35 • Falcipain 2: 50 mM Acetat-Puffer pH 5.5 mit 5 mM DTT, 5 mM EDTA, 200 mM NaCl, 0.005% Brij35 • c. Substrates: • Cathepsin L: 6,25 µM Z-Phe-Arg-7-amino-4-methylcumarin, HCl von Bachem, Ex 380 nm, Em 460 nm • Cathepsin B: 100 µM Z-Phe-Arg-7-amino-4-methylcumarin, HCl von Bachem, Ex 380 nm, Em 460 nm • Rhodesain: 10µM Z-Phe-Arg-7-amino-4-methylcumarin, HCl von Bachem, Ex 380 nm, Em 460 nm • Falcipain 2: 25µM Z-Phe-Arg-7-amino-4-methylcumarin, HCl von Bachem, Ex 380 nm, Em 460 nm • Reference substance(s)/positive control(s): E64 • d. Solvent for inhibitors and substrates: DMSO 99,5% (GC) DC4540, Sigma • e. Measurement device: Tecan Fluorescence spectrophotometer infinite F200 Pro • f. Well plates: 96 well plates, Lia-Plate White, Greiner bio-one, flat bottom, high binding • g. Methodology: Substrates and inhibitor stock solutions are prepared in DMSO and diluted with the respective assay buffer (final DMSO concentration: […]). Enzyme stock solutions are diluted with assay buffer to yield a fluorescence increase of dF/min ≈ _20. Total volume: 200 µL (180 µL of assay buffer, 5 µL of enzyme solution, 10 µL of DMSO or inhibitor solution, 5 µL of substrate solution). Assays are started by the addition of substrate solution. Fluorescence increase is detected over a period of 10 - 30 min, depending on time dependent (30 min) or non-time dependent (10 min) inhibition. • h. Temp: 25 °C • i. DATA-[…] • Software: Grafit 5.013 • Ki values are calculated from IC50 values (obtained by the 4-parameter IC50 equation) using the Chen-Prusoff equation: Ki=IC50/(1 + [S]/Km)
(§4) In vitro inhibition of cysteine-proteases cruzain (CR) (Trypanosoma cruzi (T. cruzi)), rhodesain (RD) (T. brucei), cathepsin B (CB), falcipain (FP2) (Plasmodium falciparum) and cathepsin L (CL) was assessed by quantification of the resulting fluorescence emission of the proteolytic breakdown of synthetic compound Z-Phe-Arg-AMC (Bachem). The results of this determination are shown in tables 1 and 2 illustrated above.

Falcipain 2 = target: T2, Falcipain 2 (Plasmodium falciparum, UniProt Q8I6U4); assay: Protease assay, fluorogenic substrate Z-Phe-Arg-AMC: Falcipain 2; assay type: biochemical; details: FP2=Falcipain2
T2 construct: made in house
T2 sequence (Q8I6U4 244-484): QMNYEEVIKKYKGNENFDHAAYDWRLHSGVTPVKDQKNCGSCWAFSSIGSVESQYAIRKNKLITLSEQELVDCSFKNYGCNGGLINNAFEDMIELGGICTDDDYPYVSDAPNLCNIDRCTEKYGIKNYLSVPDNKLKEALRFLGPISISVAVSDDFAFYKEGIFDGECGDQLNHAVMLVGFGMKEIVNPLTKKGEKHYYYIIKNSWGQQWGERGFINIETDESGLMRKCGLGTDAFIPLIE
Text: as §1, §2, §3, §4

cruzain (CR) = cruzain (CR) (Trypanosoma cruzi, UniProt P25779); assay: In vitro inhibition of cruzain, fluorescence of Z-Phe-Arg-AMC breakdown; assay type: biochemical
Chain of cruzain (CR) (P25779 123-467): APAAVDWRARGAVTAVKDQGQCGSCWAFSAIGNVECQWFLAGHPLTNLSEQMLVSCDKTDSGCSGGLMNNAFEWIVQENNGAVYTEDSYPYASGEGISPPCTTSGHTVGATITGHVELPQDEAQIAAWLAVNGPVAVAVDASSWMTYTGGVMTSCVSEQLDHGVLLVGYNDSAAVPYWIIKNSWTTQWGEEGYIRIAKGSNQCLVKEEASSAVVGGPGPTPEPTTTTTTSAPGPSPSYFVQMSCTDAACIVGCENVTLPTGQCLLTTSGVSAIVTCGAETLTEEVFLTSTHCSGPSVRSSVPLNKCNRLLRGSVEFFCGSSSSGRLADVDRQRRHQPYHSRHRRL
Protocol: as §2, §4

Rhodesain = target: T3, Rhodesain (Trypanosoma brucei rhodesiense, UniProt Q95PM0); assay: Protease assay, fluorogenic substrate Z-Phe-Arg-AMC: Rhodesain; assay type: biochemical; details: for IC50: RD=Rhodesain, 25 °C, pH 5.5, 10µM substrate
T3 construct: made in house
T3 sequence (Q95PM0 entry or part of it): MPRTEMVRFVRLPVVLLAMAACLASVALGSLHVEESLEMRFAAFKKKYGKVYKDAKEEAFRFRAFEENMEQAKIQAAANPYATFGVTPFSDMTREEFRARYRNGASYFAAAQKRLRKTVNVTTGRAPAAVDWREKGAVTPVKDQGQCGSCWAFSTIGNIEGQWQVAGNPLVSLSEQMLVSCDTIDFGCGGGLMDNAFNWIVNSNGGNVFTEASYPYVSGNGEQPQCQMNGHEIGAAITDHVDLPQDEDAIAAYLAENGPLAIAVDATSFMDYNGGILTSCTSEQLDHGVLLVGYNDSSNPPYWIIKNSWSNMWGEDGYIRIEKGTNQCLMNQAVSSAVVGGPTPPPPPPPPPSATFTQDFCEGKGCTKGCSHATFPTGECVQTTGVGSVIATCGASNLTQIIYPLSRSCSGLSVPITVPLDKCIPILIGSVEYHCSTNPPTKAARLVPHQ
Text: as §1, §2, §3, §4

Cathepsin B (human) = target: T4, Cathepsin B (human) (Homo sapiens, UniProt P07858); assay: Protease assay, fluorogenic substrate Z-Phe-Arg-AMC: Cathepsin B; assay type: biochemical
T4 construct: Cathepsin B (human liver) Calbiochem; purchased Calbiochem; host or cells: human liver (tissue-derived)
Text: as §1, §2, §3, §4

[1] = tested on: T. cruzi Tulahuen strain C2C4; assay: Activity against T. cruzi in L-6 cells (beta-galactosidase, CPRG); assay type: cell-based; details: for IC50: Trypanosoma cruzi, TULAHUEN
Protocol: (§5) For all the susceptibility assays with parasites and cells, each drug was tested in duplicate and each assay was repeated at least once. • a. Activity against Trypanosoma brucei rhodesiense STIB900. This stock was isolated in 1982 from a human patient in Tanzania and after several mouse passages cloned and adapted to axenic culture conditions (Baltz et al 1985) Minimum Essential Medium (50 µl) supplemented with 25 mM HEPES, 1g/l additional glucose, 1% MEM non-essential amino acids (100x), 0.2 mM 2-mercaptoethanol, 1 mM Na-pyruvate and 15% heat inactivated horse serum was added to each well of a 96-well microtiter plate. Serial drug dilutions of eleven 3-fold dilution steps covering a range from 100 to 0.002 µg/ml were prepared. Then 4x10^3 bloodstream forms of T. b. rhodesiense STIB 900 in 50 µl was added to each well and the plate incubated at 37 °C under a 5 % CO2 atmosphere for 70 h. 10 µl Alamar Blue (resazurin, 12.5 mg in 100 ml double-distilled water) was then added to each well and incubation continued for a further 2-4 h (Raz et al 1997). Then the plates were read with a Spectramax Gemini XS microplate fluorometer (Molecular Devices Cooperation, Sunnyvale, CA, USA) using an excitation wave length of 536 nm and an emission wave length of 588 nm. The IC50 values were calculated by linear regression (Huber 1993) from the sigmoidal dose inhibition curves using SoftmaxPro software (Molecular Devices Cooperation, Sunnyvale, CA, USA). Melarsoprol (Arsobal Sanofi-Aventis, received from WHO) is used as control. • b. Activity against T. cruzi. Rat skeletal myoblasts (L-6 cells) were seeded in 96-well microtitre plates at 2000 cells/well in 100 µL RPMI 1640 medium with 10% FBS and 2 mM I-glutamine. After 24 h the medium was removed and replaced by 100 µl per well containing 5000 trypomastigote forms of T. cruzi Tulahuen strain C2C4 containing the β-galactosidase (Lac Z) gene (Buckner et al. 1996). After 48 h the medium was removed from the wells and replaced by 100 µl fresh medium with or without a serial drug dilution of eleven 3-fold dilution steps covering a range from 100 to 0.002 µg/ml. After 96 h of incubation the plates were inspected under an inverted microscope to assure growth of the controls and sterility. Then the substrate CPRG/Nonidet (50 µl) was added to all wells. A color reaction developed within 2-6 h and could be read photometrically at 540 nm. Data were analyzed with the graphic programme Softmax Pro (Molecular Devices), which calculated IC50 values by linear regression (Huber 1993) from the sigmoidal dose inhibition curves. […] Activity against L. donovani axenic amastigotes. Amastigotes of L. donovani strain MHOM/ET/67/L82 were grown in axenic culture at 37 °C in SM medium (Cunnigham et al. 1977) at pH 5.4 supplemented with 10% heat-inactivated fetal bovine serum under an atmosphere of 5% CO2 in air. One hundred microlitres of culture medium with 10^5 amastigotes from axenic culture with or without a serial drug dilution were seeded in 96-well microtitre plates. Serial drug dilutions of eleven 3-fold dilution steps covering a range from 90 to 0.002 µg/ml were prepared. After 70 h of incubation the plates were inspected under an inverted microscope to assure growth of the controls and sterile conditions. 10 µl of Alamar Blue (12.5 mg resazurin dissolved in 100 ml distilled water) (Mikus and Steverdig. 2000) were then added to each well and the plates incubated for another 2 h. Then the plates were read with a Spectramax Gemini XS microplate fluorometer (Molecular Devices Cooperation, Sunnyvale, CA, USA) using an excitation wave length of 536 nm and an emission wave length of 588 nm. Data were analyzed using the software Softmax Pro (Molecular Devices Cooperation, Sunnyvale, CA, USA). Decrease of fluorescence (= inhibition) was expressed as percentage of the fluorescence of control cultures and plotted against the drug concentrations. From the sigmoidal inhibition curves the IC50 values were calculated. • d.

[2] = tested on: P. falciparum NF54 strain; assay: Activity against P. falciparum, 3H-hypoxanthine incorporation assay; assay type: cell-based; details: for IC50: Plasmodium falciparum
[3] = tested on: Trypanosoma brucei rhodesiense STIB900; assay: Activity against Trypanosoma brucei rhodesiense STIB900 (Alamar Blue); assay type: cell-based; details: for IC50: Trypanosoma brucei
Protocol: as §5

[4] = CL=CathepsinL; 25 °C, pH 6.5, 6,25 µM substrate; read-out: CL(IC50)
[5] = read-out: CL(IC50); CL=CathepsinL; 25 °C, pH 6.5, 6,25 µM substrate
[6] = read-out: CBIC50micM; CB=CathepsinB; 25 °C, pH 6.5, 100 µM substrate

## O=C(O)/C=C/[C@@H](O)[C@H](CCc1ccccc1)NC(=O)[C@H](Cc1ccccc1)NC(=O)OCc1ccccc1
Cathepsin L (human); CL=CathepsinL
  CL(K2nd(M-1s-1)): 882 M⁻¹ s⁻¹
Cathepsin L (human); [4]
  IC50: 20000 nM
Falcipain 2
  FP2(K2nd(M-1s-1)): 29 M⁻¹ s⁻¹

## CCOC(=O)/C=C/[C@@H](O)[C@H](CCc1ccccc1)NC(=O)[C@H](Cc1ccccc1)NC(=O)N1CCOCC1
Cruzain (CR)
  CR(K2nd(M-1s-1)): 3615 M⁻¹ s⁻¹
  IC50: 3750 nM
Cathepsin L (human); CL=CathepsinL
  CL(K2nd(M-1s-1)): 1860 M⁻¹ s⁻¹
Cathepsin L (human); [4]
  IC50: 2450 nM
Rhodesain
  RD(K2nd(M-1s-1)): 36735 M⁻¹ s⁻¹
  IC50: 1130 nM
Cathepsin B (human); CB=CathepsinB
  CB(K2nd(M-1s-1)): 4190 M⁻¹ s⁻¹
Cathepsin B (human); CB=CathepsinB; 25 °C, pH 6.5, 100 µM substrate; read-out: CBIC50micM
  IC50: 1130 nM

## CCOC(=O)/C=C/C(=O)[C@H](CC(C)C)NC(=O)[C@H](Cc1ccccc1)NC(=O)OCc1ccccc1
Cruzain (CR)
  CR(K2nd(M-1s-1)): 516667 M⁻¹ s⁻¹
  IC50: 16.2 nM
Cathepsin L (human); CL=CathepsinL
  CL(K2nd(M-1s-1)): 758621 M⁻¹ s⁻¹
Cathepsin L (human); [5]
  IC50: 9.6 nM
Rhodesain
  RD(K2nd(M-1s-1)): 1611111 M⁻¹ s⁻¹
  IC50: 16.4 nM
Cathepsin B (human); CB=CathepsinB
  CB(K2nd(M-1s-1)): 138462 M⁻¹ s⁻¹
Cathepsin B (human); [6]
  IC50: 53 nM

## CC(C)C[C@H](NC(=O)[C@H](Cc1ccccc1)NC(=O)OCc1ccccc1)C(=O)/C=C/S(=O)(=O)c1ccccc1
Cruzain (CR)
  CR(K2nd(M-1s-1)): 709411 M⁻¹ s⁻¹
  IC50: 11.1 nM
Cathepsin L (human); CL=CathepsinL
  CL(K2nd(M-1s-1)): 383272 M⁻¹ s⁻¹
Cathepsin L (human); [5]
  IC50: 9.95 nM
Rhodesain
  RD(K2nd(M-1s-1)): 1361750 M⁻¹ s⁻¹
  IC50: 6 nM
Cathepsin B (human); CB=CathepsinB
  CB(K2nd(M-1s-1)): 82248 M⁻¹ s⁻¹
Cathepsin B (human); [6]
  IC50: 50 nM

## CCOC(=O)C=CC(O)C(CCc1ccccc1)NC(=O)C(Cc1ccccc1)NC(=O)OCc1ccccc1 (single isomer, unassigned)
Cathepsin L (human); CL=CathepsinL
  CL(K2nd(M-1s-1)): 77 M⁻¹ s⁻¹
Cathepsin B (human); CB=CathepsinB
  CB(K2nd(M-1s-1)): 14 M⁻¹ s⁻¹

## O=C(Cn1ccnc1[N+](=O)[O-])NCc1ccccc1 [Benznidazole]
[1]; L6, 96 h, replicate 1, L-6 cells, 96 h, read-out: T.cruzi. IC50 repl1
  IC50: 657 ng/mL (≈ 2.52 µM)
[1]; L6, 96 h, replicate 2, L-6 cells, 96 h, read-out: T.cruzi. IC50 repl2
  IC50: 522 ng/mL (≈ 2.01 µM)
[1]; L6, control value stated in the method text
  IC50: 500 ± 200 ng/mL (≈ 1.92 µM)
[1]; L6, mean of replicates, read-out: T.cruzi. IC50 mean
  IC50: 590 ng/mL (≈ 2.27 µM)
[1]; mean of replicates
  T.cruzi. IC50 mean: 0,516 micrograms/mL
[1]; replicate 1, L-6 cells, 96 h
  T.cruzi. IC50 repl1: 0,367 micrograms/mL
[1]; replicate 2, L-6 cells, 96 h
  T.cruzi. IC50 repl2: 0,664 micrograms/mL

## CCN(CC)CCCC(C)Nc1ccnc2cc(Cl)ccc12 (stereo not shown) [Chloroquine, reference compound]
[2]; NF54, read-out: P.falc NF54 IC50 mean, mean of replicates
  IC50: 3 ng/mL (≈ 0.00938 µM)
[2]; NF54, read-out: P.falc NF54 IC50 repl1, replicate 1, erythrocytic stages, NF54
  IC50: 3 ng/mL (≈ 0.00938 µM)
[2]; NF54, read-out: P.falc NF54 IC50 repl2, replicate 2, erythrocytic stages, NF54
  IC50: 2 ng/mL (≈ 0.00625 µM)
[2]; replicate 1, erythrocytic stages, NF54
  P.falc NF54 IC50 repl1: 0,002 micrograms/mL

## Nc1nc(N)nc(Nc2ccc([As]3SCC(CO)S3)cc2)n1 (stereo not shown) [Melarsoprol, reference compound]
[3]; 70 h, read-out: T.b.rhod. IC50 repl1, replicate 1, bloodstream forms, 70 h
  IC50: 5 ng/mL
[3]; 70 h, read-out: T.b.rhod. IC50 repl2, replicate 2, bloodstream forms, 70 h
  IC50: 2 ng/mL
[3]; read-out: T.b.rhod. IC50 mean, mean of replicates
  IC50: 3 ng/mL
[3]; mean of replicates
  T.b.rhod. IC50 mean: 0,004 micrograms/mL
[3]; replicate 1, bloodstream forms, 70 h
  T.b.rhod. IC50 repl1: 0,003 micrograms/mL
[3]; replicate 2, bloodstream forms, 70 h
  T.b.rhod. IC50 repl2: 0,004 micrograms/mL
